Data from PubChem BioAssay (NCI).
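Following 48 hours of exposure in 96-well plates, responses at five concentrations were used to interpolate endpoints linearly. Here, GI50 denotes the concentration required for 50% inhibition of growth. At the TGI there is no net growth.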

Assays:
Assay in all cases: NCI anticancer screen, dose series, 48 h
[1] = system: SF-539 CNS
[2] = system: COLO 205 colon
[3] = system: SF-295 CNS
[4] = system: 786-0 renal
[5] = system: MDA-MB-231 breast
[6] = system: U251 CNS
[7] = system: MOLT-4 leukemia
[8] = system: MCF7 breast
[9] = system: NCI-H460 lung
[10] = system: NCI-H226 lung
[11] = system: UACC-257 melanoma
[12] = system: A498 renal
[13] = system: HCT-116 colon
[14] = system: UACC-62 melanoma
[15] = system: SK-MEL-5 melanoma
[16] = system: SF-268 CNS
[17] = system: SW-620 colon
[18] = system: SNB-19 CNS
[19] = system: LOX IMVI melanoma
[20] = system: PC-3 prostate
[21] = system: SK-MEL-2 melanoma
[22] = system: NCI/ADR-RES ovarian
[23] = system: UO-31 renal
[24] = system: MDA-MB-435
[25] = system: K-562 leukemia
[26] = system: OVCAR-5 ovarian
[27] = system: HCC-2998 colon
[28] = system: CCRF-CEM leukemia
[29] = system: CAKI-1 renal
[30] = system: HOP-62 NSCLC
[31] = system: HCT-15 colon
[32] = system: DU-145 prostate
[33] = system: SK-MEL-28 melanoma
[34] = system: SN12C renal
[35] = system: RXF 393 renal
[36] = system: RPMI-8226 leukemia
[37] = system: BT-549 breast
[38] = system: T-47D breast
[39] = system: KM12 colon
[40] = system: HS 578T breast
[41] = system: OVCAR-4 ovarian
[42] = system: M14 melanoma
[43] = system: IGROV1 ovarian
[44] = system: A549 NSCLC
[45] = system: SR leukemia
[46] = system: HL-60(TB) leukemia
[47] = system: MALME-3M melanoma
[48] = system: HOP-92 NSCLC
[49] = system: ACHN renal
[50] = system: NCI-H522 lung
[51] = system: OVCAR-3 ovarian
[52] = system: HT29 colon
[53] = system: OVCAR-8 ovarian
[54] = system: SNB-75 CNS
[55] = system: SK-OV-3 ovarian

## O=C1C(Br)=CC2C1C1C3CCC3C2(Br)C12OCCO2 (stereo not given)
[1]
  GI50: 2.15 µM
  TGI: 5.99 µM
[2]
  GI50: 3.35 µM
  TGI: 10.9 µM
[3]
  GI50: 9.69 µM
  TGI: 27.5 µM
[4]
  GI50: 4.32 µM
  TGI: 16 µM
[5]
  GI50: 1.84 µM
  TGI: 11.4 µM
[6]
  GI50: 2.88 µM
  TGI: 13 µM
[7]
  GI50: 3.64 µM
  TGI: 10.8 µM
[8]
  GI50: 1.98 µM
  TGI: 12.8 µM
[9]
  GI50: 2.08 µM
  TGI: 10.2 µM
[10]
  GI50: 3.55 µM
  TGI: 20.4 µM
[11]
  GI50: 2.14 µM
  TGI: 12.5 µM
[12]
  GI50: 2.99 µM
  TGI: 11.4 µM
[13]
  GI50: 2.08 µM
  TGI: 10.3 µM
[14]
  GI50: 2.87 µM
  TGI: 14.1 µM
[15]
  GI50: 3.19 µM
  TGI: 14.4 µM
[16]
  GI50: 2.5 µM
  TGI: 15.5 µM
[17]
  GI50: 3.12 µM
  TGI: 11.6 µM
[18]
  GI50: 9.65 µM
  TGI: 23 µM
[19]
  GI50: 1.21 µM
  TGI: 3.74 µM
[20]
  GI50: 3.47 µM
  TGI: 19 µM
[21]
  GI50: 3.17 µM
  TGI: 9.09 µM
[22]
  GI50: 4.84 µM
  TGI: 41 µM
[23]
  GI50: 3.4 µM
  TGI: 13.4 µM
[24]
  GI50: 2.93 µM
  TGI: 13.4 µM
[25]
  GI50: 2.98 µM
  TGI: 13 µM
[26]
  GI50: 2.47 µM
  TGI: 8.91 µM
[27]
  GI50: 6.6 µM
  TGI: 20.5 µM
[28]
  GI50: 1.82 µM
  TGI: 10.5 µM
[29]
  GI50: 4.1 µM
  TGI: 17.6 µM
[30]
  GI50: 4.25 µM
  TGI: 16.5 µM
[31]
  GI50: 1.22 µM
  TGI: 3.49 µM
[32]
  GI50: 3.22 µM
  TGI: 13.8 µM
[33]
  GI50: 3.98 µM
  TGI: 18 µM
[34]
  GI50: 3.08 µM
  TGI: 15.3 µM
[35]
  GI50: 2.64 µM
  TGI: 11.6 µM
[36]
  GI50: 1.71 µM
  TGI: 5.76 µM
[37]
  GI50: 5.03 µM
  TGI: 18.1 µM
[38]
  GI50: 2.48 µM
  TGI: 12.9 µM
[39]
  GI50: 2.39 µM
  TGI: 8.4 µM
[40]
  GI50: 3.46 µM
  TGI: 71 µM
[41]
  GI50: 2.79 µM
  TGI: 14.7 µM
[42]
  GI50: 4.45 µM
  TGI: 19.9 µM
[43]
  GI50: 2.89 µM
  TGI: 12.7 µM
[44]
  GI50: 2.29 µM
  TGI: 10.9 µM
[45]
  GI50: 0.721 µM
  TGI: 6.57 µM
[46]
  GI50: 2.2 µM
  TGI: 5.66 µM
[47]
  GI50: 4.45 µM
  TGI: 21.3 µM
[48]
  GI50: 5.08 µM
  TGI: 21.8 µM
[49]
  GI50: 2.94 µM
  TGI: 12.2 µM
[50]
  GI50: 1.82 µM
  TGI: 4.73 µM
[51]
  GI50: 3.24 µM
  TGI: 9.88 µM
[52]
  GI50: 2.75 µM
  TGI: 10.3 µM
[53]
  GI50: 2.8 µM
  TGI: 12.3 µM
[54]
  GI50: 3.42 µM
  TGI: 34.7 µM
[55]
  GI50: 4.3 µM
  TGI: 15.3 µM
